The values below come from paper PMC1794076, “Bioinorganic Chemistry in Thyroid Gland: Effect of Antithyroid Drugs on Peroxidase-Catalyzed Oxidation and Iodination Reactions” (Bioinorganic Chemistry and Applications, 2006).

Series [1] deals with lactoperoxidase (LPO). On the set-up: method as in PMID 16248663. The conditions noted are these: cited from earlier work.
For series [2], the target named is lactoperoxidase (LPO). On the set-up: method as in PMID 16855736. The conditions noted are these: cited from earlier work.
On the set-up of series [3]: method as in earlier work. The conditions noted are these: cited from earlier work.
Series [4] is described as follows: Glutathione peroxidase (GPx)-like reduction of H2O2 in the presence of thiols (GSH). Type of series: biochemical. The following applies: catalytic reduction of H2O2 with thiols such as GSH. An excerpt: Doerge and others have shown that mammalian peroxidases including LPO may activate the antithyroid drugs through S-oxygenation to produce the corresponding sulfoxides or sulfinic acids. They have also shown that the suicide inactivation of LPO and TPO by MMI proceeds through the S-oxygenation of the thione moiety to form a reactive sulfinic acid, which binds covalently to the prosthetic heme and irreversibly blocks enzyme activity. Given the higher reactivity of selenium compounds as compared with the sulfur derivatives toward oxidation, it is possible that the facile oxidation of the selenium compounds may lead to an efficient inhibition of LPO activity. […] The LPO activity was measured several times by increasing the time for the reaction of the test compounds with H2O2. Remarkably, MSeI (2) inhibited the enzyme within few seconds even at lower concentrations, which can be ascribed to the facile oxidation of the reactive selenolate group in 2 (MSeI) by H2O2 or by the oxidized enzyme. […] The initial rates (v0) derived from various concentrations of H2O2 were plotted against the concentration of H2O2. […] The reduction of H2O2 by 2 may become more efficient in the presence of suitable thiols such as GSH because this process may constitute a redox cycle involving a catalytic reduction of H2O2 (glutathione peroxidase (GPx) activity). […]

On the set-up of series [5]: method as in PMID 14995183, PMID 16248663. The following applies: oxidizes in air to the corresponding diselenide; cited from earlier work.

SMILES strings stand for the structures. Read-outs that look alike come from different tables or passages of the source.

One may read the IC50 as the midpoint of a concentration-inhibition curve. On to `Cn1cc[nH]c1=S` [MMI, methimazole], for which the “Recovery of LPO activity at lower compound and higher H2O2 concentration” value in series [1] (10 μM compound, 230 μM H2O2) is recorded as “could not be recovered”. Also, in series [1] (40 μM compound, ABTS oxidation, Figure 3), the “LPO activity in the presence of compound” value was “completely inhibited”. Besides, in series [1] (40 μM compound, initial rates vs H2O2 concentration, LPO 6.5 nM, Figure 3), the “Recovery of LPO activity by increasing H2O2 concentration” value is recorded as “could not be recovered”. Further, the IC50 was 7 ± 1.1 µM in series [1] (LPO-catalyzed oxidation of ABTS with H2O2, concentration causing 50% inhibition, at least three independent experiments) and 5.2 µM in series [2] (HPLC assay, KI, L-tyrosine, H2O2, LPO, fixed H2O2 concentration, read-out: IC50, inhibition of LPO-catalyzed iodination of L-tyrosine). In addition, the “hydrogen-bond (hard) basicity pk HB value” in series [3] was 2.11.

For the compound `Cn1cc[nH]c1=[Se]` [MSeI], in series [4], the “GPx activity (in words)” value is on record as “high”. In addition, in series [5], the “Stability of the zwitterionic form in air” value is recorded as “unstable”.

For the compound `CCCc1cc(=O)[nH]c(=S)[nH]1` [PTU, 6-n-propyl-2-thiouracil], in series [3], the “hydrogen-bond (hard) basicity pk HB value” is on record as around 1.32.

Regarding `Cn1ccnc1[Se][Se]c1nccn1C` [compound 8], in series [1] (identical experimental conditions as for the IC50 determination), the “Inhibition of LPO-catalyzed oxidation (in words)” value is “does not show any noticeable inhibition”. In addition, the “Inhibition of LPO-catalyzed iodination (in words)” value in series [2] (identical conditions as the IC50 determination) is on record as “did not show any noticeable inhibition”.
